How the values were obtained:
factor Xa = factor Xa (Homo sapiens, UniProt P00742); assay: inhibition of factor Xa; format: biochemical
Text: The inhibition of factor Xa by the compounds according to the invention and the measurement of the anticoagulant and antithrombotic activity can be determined by conventional in-vitro or in-vivo methods. A suitable method is described, for example, by J. Hauptmann et al. in Thrombosis and Haemostasis 1990, 63, 220-223.
The inhibition of factor Xa can be measured, for example, by the method of T. Hara et al. in Thromb. Haemostas. 1994, 71, 314-319.

factor VIIa = target: T1, factor VIIa (Homo sapiens, UniProt P08709); assay: inhibition of factor VIIa; format: biochemical
T1 sequence (P08709 213-466 limits assumed): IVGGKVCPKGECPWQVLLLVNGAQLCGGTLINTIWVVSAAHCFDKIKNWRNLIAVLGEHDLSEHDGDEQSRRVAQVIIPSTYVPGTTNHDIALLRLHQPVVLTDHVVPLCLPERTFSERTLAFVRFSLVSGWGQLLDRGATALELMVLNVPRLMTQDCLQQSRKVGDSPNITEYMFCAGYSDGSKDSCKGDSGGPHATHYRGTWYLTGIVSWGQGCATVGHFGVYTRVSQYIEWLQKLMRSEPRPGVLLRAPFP
T1 sequence (P08709 61-212 partner limits assumed): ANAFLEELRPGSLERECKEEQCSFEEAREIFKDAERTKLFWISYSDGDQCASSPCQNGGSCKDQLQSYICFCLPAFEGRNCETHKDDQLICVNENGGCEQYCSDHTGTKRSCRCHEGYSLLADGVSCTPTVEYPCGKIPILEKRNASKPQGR
Text: The inhibition of factor VIIa by the compounds according to the invention and the measurement of the anticoagulant and antithrombotic activity can be determined by conventional in-vitro or in-vivo methods. A conventional method for the measurement of the inhibition of factor VIIa is described, for example, by H. F. Ronning et al. in Thrombosis Research 1996, 84, 73-81.

factor Xa, sequence (P00742 235-488 limits assumed): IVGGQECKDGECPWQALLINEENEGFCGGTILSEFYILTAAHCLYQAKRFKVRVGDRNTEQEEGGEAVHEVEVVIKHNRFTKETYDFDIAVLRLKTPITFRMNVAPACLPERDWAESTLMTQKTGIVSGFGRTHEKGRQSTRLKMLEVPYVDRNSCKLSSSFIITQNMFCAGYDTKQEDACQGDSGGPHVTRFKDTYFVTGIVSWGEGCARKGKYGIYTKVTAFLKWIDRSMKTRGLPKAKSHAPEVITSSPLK
factor Xa, sequence (P00742 41-179 partner limits assumed): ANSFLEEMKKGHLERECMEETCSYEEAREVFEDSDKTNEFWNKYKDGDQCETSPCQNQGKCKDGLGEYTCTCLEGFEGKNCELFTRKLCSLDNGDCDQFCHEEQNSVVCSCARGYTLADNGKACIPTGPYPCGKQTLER

| IC50 (factor Xa) | IC50 (factor VIIa) | Structure (SMILES) |
| --- | --- | --- |
| 1200 nM | 750 nM | CS(=O)(=O)c1ccccc1-c1ccc(NC(=O)C(Cc2cccs2)NC(=O)Nc2ccccc2)cc1 (centres unmarked) [2-(3-phenylureido)-N-(2′-methylsulfonylbiphenyl-4-yl)-3-(thiophen-2-yl)-propionamide] |
| 3000 nM | 170 nM | CCCC[C@@H](NC(=O)Nc1ccccc1)C(=O)Nc1ccc(-c2ccccc2S(C)(=O)=O)cc1 [(R)-2-(3-phenylureido)-N-(2′-methylsulfonylbiphenyl-4-yl)hexanoamide] |
| 2300 nM | 1800 nM | CSCCC(NC(=O)Nc1ccccc1)C(=O)Nc1ccc(-c2ccccc2S(C)(=O)=O)cc1 (centres unmarked) [2-(3-phenylureido)-N-(2′-methylsulfonylbiphenyl-4-yl)-4-methylsulfanylbutyramide] |
| 2000 nM | 930 nM | CCC[C@@H](NC(=O)Nc1ccccc1)C(=O)Nc1ccc(-c2ccccc2S(C)(=O)=O)cc1 [(R)-2-(3-phenylureido)-N-(2′-methylsulfonylbiphenyl-4-yl)pentanoamide] |
| 3800 nM | 2700 nM | CCC[C@H](NC(=O)Nc1ccccn1)C(=O)Nc1ccc(-c2ccccc2S(C)(=O)=O)cc1 [(S)-2-(3-pyridin-2-ylureido)-N-(2′-methylsulfonylbiphenyl-4-yl)-pentanoamide] |

Further lines, the compound ahead of its results:

| Structure (SMILES) | IC50 (factor Xa) | IC50 (factor VIIa) |
| --- | --- | --- |
| CS(=O)(=O)c1ccccc1-c1ccc(NC(=O)C(Cc2cnc[nH]2)NC(=O)Nc2ccccc2)cc1 (centres unmarked) [2-(3-phenylureido)-N-(2′-methylsulfonylbiphenyl-4-yl)-3-(3H-imidazol-4-yl)propionamide] | 2000 nM | 2000 nM |
| O=C(Nc1ccc(Cl)cc1)N[C@@H](C(=O)NCC1CCN(c2ccncc2)CC1)c1ccccc1 [(R)-2-[3-(4-chlorophenyl)ureido]-N-[1-(pyridin-4-yl)piperidin-4-ylmethyl]-2-phenylacetamide] | 55 nM | – |
| CC(C)C[C@@H](NC(=O)Nc1ccc(Cl)cc1)C(=O)NCC1CCN(c2ccncc2)CC1 [(R)-2-[3-(4-chlorophenyl)ureido]-N-[1-(pyridin-4-yl)piperidin-4-ylmethyl]-4-methylvaleramide] | 410 nM | – |
| O=C(Nc1ccc(Cl)cc1)OC(C(=O)NCC1CCN(c2ccncc2)CC1)c1ccccc1 (centres unmarked) [2-[N-(4-chlorophenyl)-carbamoyloxy]-N-[1-(pyridin-4-yl)piperidin-4-ylmethyl]-2-phenylacetamide] | 71 nM | – |
| CS(=O)(=O)c1ccccc1-c1ccc(NC(=O)C(NC(=O)Nc2ccccc2)c2ccccc2)cc1 (centres unmarked) [2-(3-phenylureido)-N-(2′-methylsulfonylbiphenyl-4-yl)-2-phenyl-acetamide] | 2300 nM | 2000 nM |
| CS(=O)(=O)c1ccccc1-c1ccc(NC(=O)[C@@H](Cc2ccccc2)NC(=O)Nc2ccc(Cl)cc2)cc1 [(R)-2-[3-(4-chlorophenyl)ureido]-N-(2′-methylsulfonylbiphenyl-4-yl)-3-phenylpropionamide] | 86 nM | 65 nM |
| CCCC(NC(=O)Nc1ccc(Cl)cc1)C(=O)NCC1CCN(c2ccncc2)CC1 (centres unmarked) [2-[3-(4-chlorophenyl)ureido]-N-[1-(pyridin-4-yl)piperidin-4-ylmethyl]-valeramide] | 580 nM | – |

— patent US20050137230A1, “Carboxamide derivatives” (priority 2000, published 2005)
